{
  "source": "patent US8269043B2",
  "about": "“Bicyclic aryl sphingosine 1-phosphate analogs” (Biogen Idec MA Inc., priority 2008, dated 2012)",
  "key": {"[1]": {"molecular_target": "T1, human S1P3 receptor (Homo sapiens, UniProt Q99500)", "T1 construct": "host or cells: recombinant CHEM cells", "T1 sequence (Q99500 whole entry)": "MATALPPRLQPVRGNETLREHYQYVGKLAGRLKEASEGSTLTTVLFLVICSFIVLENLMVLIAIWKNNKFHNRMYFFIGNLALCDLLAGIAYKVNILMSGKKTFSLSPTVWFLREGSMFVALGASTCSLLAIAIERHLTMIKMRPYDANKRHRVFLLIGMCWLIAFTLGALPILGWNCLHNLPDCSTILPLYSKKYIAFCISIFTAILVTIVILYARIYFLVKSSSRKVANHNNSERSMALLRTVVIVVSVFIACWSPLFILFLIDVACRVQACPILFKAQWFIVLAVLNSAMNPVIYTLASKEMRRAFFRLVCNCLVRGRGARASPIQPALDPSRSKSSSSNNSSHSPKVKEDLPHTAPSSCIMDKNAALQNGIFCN", "assay": "Calcium mobilization assay, agonist activity at human S1P3", "type": "cell-based", "conditions": "recombinant CHEM cells expressing human S1P3, FLIPR Calcium 4 dye (FIG. 9, FIG. 11)", "description": "(§1) Compounds that were not specific for the S1P, receptor, can have activity for other S1P receptor subtypes, e.g., S1P2, S1P3, S1P4, or S1P5, and can cause undesirable side effects. Accordingly, compounds were tested to identify those that were specific for S1P1 activity and had little or no activity, or are antagonists of, S1P3 activity. Accordingly, the test compounds were tested in a calcium mobilization assay to determine agonist activity at either the human S1P1 or human S1P3 receptor, and antagonist activity only at the human S1P3 receptor. The procedure was essentially as described (with modifications described below) in Davis et al. (2005) Journal of Biological Chemistry, vol. 280, pp. 9833-9841, which is incorporated by reference in its entirety. Calcium mobilization assays were performed in recombinant CHEM cells expressing human S1P1 or S1P3 purchased from Millipore (Billerica, Mass.). To detect free intracellular calcium, S1P1 or S1P3 cells were loaded with FLIPR Calcium 4 dye from Molecular Devices (Sunnyvale, Calif.). Cells were imagined for calcium mobilization using a FLIPR^TETRA equipped with a 96-well dispense head."}, "[2]": {"molecular_target": "T1, human S1P3 receptor", "assay": "Calcium mobilization assay, antagonist activity at human S1P3", "type": "cell-based", "conditions": "recombinant CHEM cells expressing human S1P3, FLIPR Calcium 4 dye (FIG. 10, FIG. 11)", "description": "as §1"}, "[3]": {"molecular_target": "T2, human S1P1 (Homo sapiens, UniProt P21453)", "T2 construct": "host or cells: recombinant CHEM cells", "T2 sequence (P21453 whole entry)": "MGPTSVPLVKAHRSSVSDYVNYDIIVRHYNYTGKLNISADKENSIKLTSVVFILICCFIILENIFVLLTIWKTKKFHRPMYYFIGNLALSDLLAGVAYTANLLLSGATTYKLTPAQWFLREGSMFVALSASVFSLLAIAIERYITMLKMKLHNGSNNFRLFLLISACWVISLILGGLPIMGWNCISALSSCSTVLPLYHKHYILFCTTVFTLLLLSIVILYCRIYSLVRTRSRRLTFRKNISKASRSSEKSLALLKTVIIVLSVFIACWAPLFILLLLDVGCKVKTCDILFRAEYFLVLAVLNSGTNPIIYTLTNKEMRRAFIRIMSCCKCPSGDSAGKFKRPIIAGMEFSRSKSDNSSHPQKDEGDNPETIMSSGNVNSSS", "assay": "Calcium mobilization assay, agonist activity at human S1P1", "type": "cell-based", "conditions": "recombinant CHEM cells expressing human S1P1, FLIPR Calcium 4 dye (FIG. 8, FIG. 11)", "description": "as §1"}, "[4]": {"system": "sphingosine kinase 2 (SK2)", "assay": "Sphingosine kinase 2 (SK2) substrate assay with lysate of transfected HEK293E cells, HPLC detection", "type": "biochemical, canine, mouse, or human", "conditions": "20 μM test compound, 37° C., 70 minutes, HPLC with and without added SPHK2 (FIG. 7)", "description": "To assay a test compound for its properties as a substrate of sphingosine kinase 2 (SK2), an assay using recombinantly expressed SK2 was used. Briefly, HEK293E cells were transiently transfected with plasmids containing DNA encoding a sphingosine kinase 2 (SK2) (canine, mouse, or human). […]\nThe SK2 kinase assay was performed in a 200 μL reaction mixture containing 20 μm sphingosine (control) or 20 μM test compound (prepared as a 200 μM stock solution containing 0.1% fatty acid-free bovine serum albumin (BSA)), 38 μL lysate, and 2 μM ATP (freshly prepared). Kinase reactions were incubated at 37° C. for 70 minutes followed by detection of phosphorylated compound (control or test compound) using UV absorbance at 282 nm. […] The supernatant was analyzed on HPLC using a C18 column (FIG. 7). The parent and phosphorylated test compound were quantitated using area under the curve (AUC) calculation. […]"}, "[5]": {"system": "circulating lymphocytes", "assay": "Lymphopenia assay: circulating lymphocytes after oral gavage", "type": "in vivo", "conditions": "Mus musculus, Lymphocyte, po, C57bl/6 male mice, oral gavage 0.5 and 5 mg/kg in 30% HPCD, blood 5 and 24 hours after administration", "outline": "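Male C57bl/6 mice, 6-10 weeks old, given 0.5 and 5 mg/kg orally by gavage in 30% HPCD, three mice per compound. Retro-orbital blood taken at 5 and 24 h post-dose. Peripheral lymphocytes counted on an automated hematology analyzer.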"}},
  "data": [
    {"smiles": "CCCCCCCCCCCCC/C=C/[C@@H](O)[C@@H](N)COP(=O)(O)O", "note": "[Example S1P, Sphingosine 1-phosphate]", "values": [
      {"measurement": "S1P3 agonist activity", "setting": "[1]", "result": "full S1P3 agonist"}
    ]},
    {"smiles": "C[C@](N)(COP(=O)(O)O)c1ccc2c(C(F)(F)F)c(O[C@H]3CC[C@H](C(F)(F)F)CC3)ccc2c1", "note": "[Example 269, Phosphoric acid mono-{(R)-2-amino-2-[5-trifluoromethyl-6-(trans-4-trifluoromethyl-cyclohexyloxy)-naphthalen-2-yl]-propyl}ester]", "values": [
      {"measurement": "S1P3 antagonist activity", "setting": "[2]", "result": "S1P3 antagonists"},
      {"measurement": "S1P1 agonist activity", "setting": "[3]", "result": "S1P, agonists"},
      {"measurement": "S1P3 agonist activity", "setting": "[1]", "result": "not S1P3 agonists"}
    ]},
    {"smiles": "CCCC[C@H]1CC[C@@H](Oc2ccc3cc([C@@](C)(N)COP(=O)(O)O)ccc3c2C(F)(F)F)CC1", "note": "(relative stereo) [Example 21, (R)-2-amino-2-(6-(cis-4-butylcyclohexyloxy)-5-(trifluoromethyl)naphthalen-2-yl)propan-1-phosphoric acid]", "values": [
      {"measurement": "S1P3 antagonist activity", "setting": "[2]", "result": "do not antagonize the S1P3 receptor"},
      {"measurement": "S1P1 agonist activity", "setting": "[3]", "result": "agonists of the S1P, receptor, with potencies similar to S1P"},
      {"measurement": "phosphorylation of test compound by SPHK2", "setting": "[4]", "result": "the compound is phosphorylated under these conditions"},
      {"measurement": "S1P3 agonist activity", "setting": "[1]", "result": "weak micromolar partial S1P3 agonist activity"}
    ]},
    {"smiles": "CC(C)(C)[C@H]1CC[C@H](Oc2ccc3cc(C(N)(COP(=O)(O)O)COP(=O)(O)O)ccc3c2C(F)(F)F)CC1", "note": "[Example 61A, 2-amino-2-[6-(trans-4-tert-butylcyclohexyloxy)-5-trifluoromethyl-naphthalen-2-yl]-propane-1,3-diphosphoric acid]", "values": [
      {"measurement": "S1P3 antagonist activity", "setting": "[2]", "result": "do not antagonize the S1P3 receptor"},
      {"measurement": "S1P1 agonist activity", "setting": "[3]", "result": "agonists of the S1P, receptor, with potencies similar to S1P"}
    ]},
    {"smiles": "COc1ccc2cc([C@H](C)COC(N)=O)ccc2c1", "note": "[Example 2, carbamic acid (S)-2-(6-methoxy-naphthalen-2-yl)-propyl ester]", "values": [
      {"measurement": "S1P3 agonist activity", "setting": "[1]", "result": "no activity was seen"}
    ]},
    {"smiles": "CCCC[C@H]1CC[C@H](Oc2ccc3cc([C@@](C)(N)CO)ccc3c2)CC1", "note": "[Example 8, (R)-2-amino-2-(6-(trans-4-butylcyclohexyloxy)naphthalen-2-yl)propan-1-ol]", "values": [
      {"measurement": "ED50", "setting": "[5]", "result": "< 0.5", "unit": "mg/kg"}
    ]},
    {"smiles": "CC(C)(C)[C@H]1CC[C@H](Oc2ccc3cc([C@@](C)(N)CO)ccc3c2-c2cncnc2)CC1", "note": "[Example 225, (R)-2-amino-2-(6-(trans-4-tert-butylcyclohexyloxy)-5-(pyrimidin-5-yl)naphthalen-2-yl)propan-1-ol]", "values": [
      {"measurement": "ED50", "setting": "[5]", "result": "> 5", "unit": "mg/kg"}
    ]},
    {"smiles": "NC(CO)(CO)c1ccc2cc(Sc3cccc(OCc4ccccc4)c3)ccc2c1", "note": "[Example 192, 2-Amino-2-(6-(3-(benzyloxy)phenylthio)naphthalen-2-yl)propane-1,3-diol]", "values": [
      {"measurement": "ED50", "setting": "[5]", "result": "< 0.5", "unit": "mg/kg"}
    ]},
    {"smiles": "CC(C)(C)C1CCC(Cc2ccc3cc([C@@](C)(N)CO)ccc3c2)CC1", "note": "(stereo partly drawn) [Example 146, (R)-2-amino-2-(6-((4-tert-butylcyclohexyl)methyl)naphthalen-2-yl)propan-1-ol]", "values": [
      {"measurement": "ED50", "setting": "[5]", "result": "0.5 to 5", "unit": "mg/kg"}
    ]},
    {"smiles": "Cc1ccc(Oc2ccc3cc([C@@](C)(N)CO)ccc3c2)cc1C", "note": "[Example 184, (R)-2-Amino-2-(6-(3,4-dimethylphenoxy)naphthalen-2-yl)propan-1-ol]", "values": [
      {"measurement": "ED50", "setting": "[5]", "result": "> 5", "unit": "mg/kg"}
    ]},
    {"smiles": "CC(C)C1CCC(Oc2ccc3cc([C@@](C)(N)CO)ccc3c2)CC1", "note": "(stereo partly drawn) [Example 91, (R)-2-Amino-2-[6-(4-isopropyl-cyclohexyloxy)-naphthalen-2-yl]-propan-1-ol]", "values": [
      {"measurement": "ED50", "setting": "[5]", "result": "0.5 to 5", "unit": "mg/kg"}
    ]},
    {"smiles": "CC(C)(C)[C@H]1CC[C@H](Oc2ccc3cc([C@]4(C)COC(=O)N4)ccc3c2)CC1", "note": "[Example 238, (R)-4-(6-(trans-4-tert-butylcyclohexyloxy)naphthalen-2-yl)-4-methyloxazolidin-2-one]", "values": [
      {"measurement": "ED50", "setting": "[5]", "result": "< 0.5", "unit": "mg/kg"}
    ]}
  ]
}
